Results taken from patent US20210045385A1, “PYRIDAZINONE-SUBSTITUTED KETOXIMES AS HERBICIDES” (FMC Corporation, priority 2018, published 2021).

What was measured:
Assay type in all cases: in vivo
[1] = system: sedge, umbrella (small-flower umbrella sedge, Cyperus difformis); assay: Test B flooded paddy test, visual plant response rating; settings: 250 g ai/ha, Flood, applied to paddy water, 2-leaf stage, evaluated after 13 to 15 days
Method in brief: (§1)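 2-leaf plants; pots flooded 3 cm over soil surface; compound dosed straight into the floodwater; depth kept constant; greenhouse 13–15 d; visual rating vs. untreated controls.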

[2] = system: rice (Oryza sativa); assay: as above; settings: 250 g ai/ha, Flood, applied to paddy water, 2-leaf stage, evaluated after 13 to 15 days
Method in brief: as §1

[3] = system: ducksalad (Heteranhera limosa); assay: as above; settings: 250 g ai/ha, Flood, applied to paddy water, 2-leaf stage, evaluated after 13 to 15 days
Method in brief: as §1

[4] = system: barnyardgrass (Echinochloa crus-galli); assay: as above; settings: 250 g ai/ha, Flood, applied to paddy water, 2-leaf stage, evaluated after 13 to 15 days
Method in brief: as §1

[5] = system: foxtail, giant (giant foxtail, Setaria faberii); assay: Test A postemergence, visual plant response rating; settings: for Foxtail, Giant plant response rating (0 to 100 scale): 500 g ai/ha, postemergence, 0 is no effect, 100 is complete control; for Foxtail, Giant plant response rating: Postemergence, 125 g ai/ha, 0 to 100 scale (0 no effect, 100 complete control)
Method in brief: (§2)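 Ratings use a 0–100 visual scale (100 = complete control) against untreated controls, scored about 10 days after greenhouse treatment. Test chemicals were formulated in surfactant-containing non-phytotoxic solvent and applied either as soil spray after planting (preemergence) or onto one- to two-leaf, 2–10 cm plants (postemergence).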

[6] = system: ragweed (common ragweed, Ambrosia elatior); assay: Test A postemergence, visual plant response rating; settings: for Ragweed plant response rating (0 to 100 scale): 500 g ai/ha, postemergence, 0 is no effect, 100 is complete control; for Ragweed plant response rating: Postemergence, 125 g ai/ha, 0 to 100 scale (0 no effect, 100 complete control)
Method in brief: as §2

[7] = system: kochia (Kochia scoparia); assay: Test A postemergence, visual plant response rating; settings: for Kochia plant response rating (0 to 100 scale): 500 g ai/ha, postemergence, 0 is no effect, 100 is complete control; for Kochia plant response rating: Postemergence, 125 g ai/ha, 0 to 100 scale (0 no effect, 100 complete control)
Method in brief: as §2

[8] = system: wheat (Triticum aestivum); assay: Test A postemergence, visual plant response rating; settings: for Wheat plant response rating (0 to 100 scale): 500 g ai/ha, postemergence, 0 is no effect, 100 is complete control; for Wheat plant response rating: Postemergence, 125 g ai/ha, 0 to 100 scale (0 no effect, 100 complete control)
Method in brief: as §2

[9] = system: corn (Zea mays); assay: Test A postemergence, visual plant response rating; settings: for Corn plant response rating (0 to 100 scale): 500 g ai/ha, postemergence, 0 is no effect, 100 is complete control; for Corn plant response rating: Postemergence, 125 g ai/ha, 0 to 100 scale (0 no effect, 100 complete control)
Method in brief: as §2

[10] = system: blackgrass (Alopecurus myosuroides); assay: Test A postemergence, visual plant response rating; settings: for Blackgrass plant response rating (0 to 100 scale): 500 g ai/ha, postemergence, 0 is no effect, 100 is complete control; for Blackgrass plant response rating: Postemergence, 125 g ai/ha, 0 to 100 scale (0 no effect, 100 complete control)
Method in brief: as §2

[11] = system: galium (catchweed bedstraw, Galium aparine); assay: Test A postemergence, visual plant response rating; settings: for Galium plant response rating (0 to 100 scale): 500 g ai/ha, postemergence, 0 is no effect, 100 is complete control; for Galium plant response rating: Postemergence, 125 g ai/ha, 0 to 100 scale (0 no effect, 100 complete control)
Method in brief: as §2

[12] = system: barnyardgrass (Echinochloa crus-galli); assay: Test A postemergence, visual plant response rating; settings: for Barnyardgrass plant response rating (0 to 100 scale): 500 g ai/ha, postemergence, 0 is no effect, 100 is complete control; for Barnyardgrass plant response rating: Postemergence, 125 g ai/ha, 0 to 100 scale (0 no effect, 100 complete control)
Method in brief: as §2

[13] = system: Italian ryegrass (Lolium multiflorum); assay: Test A postemergence, visual plant response rating; settings: for Ryegrass, Italian plant response rating (0 to 100 scale): 500 g ai/ha, postemergence, 0 is no effect, 100 is complete control; for Ryegrass, Italian plant response rating: Postemergence, 125 g ai/ha, 0 to 100 scale (0 no effect, 100 complete control)
Method in brief: as §2

[14] = system: pigweed (Amaranthus retroflexus); assay: Test A postemergence, visual plant response rating; settings: for Pigweed plant response rating (0 to 100 scale): 500 g ai/ha, postemergence, 0 is no effect, 100 is complete control; for Pigweed plant response rating: Postemergence, 125 g ai/ha, 0 to 100 scale (0 no effect, 100 complete control)
Method in brief: as §2

[15] = system: foxtail, giant (giant foxtail, Setaria faberii); assay: Test A preemergence, visual plant response rating; settings: for Foxtail, Giant plant response rating: 125 g ai/ha, preemergence, 0 to 100 scale, 0 no effect, 100 complete control; for Foxtail, Giant plant response rating (0 to 100 scale): 500 g ai/ha Preemergence, approx. 10 days
Method in brief: as §2

[16] = system: ragweed (common ragweed, Ambrosia elatior); assay: Test A preemergence, visual plant response rating; settings: for Ragweed plant response rating: 125 g ai/ha, preemergence, 0 to 100 scale, 0 no effect, 100 complete control; for Ragweed plant response rating (0 to 100 scale): 500 g ai/ha Preemergence, approx. 10 days
Method in brief: as §2

[17] = system: kochia (Kochia scoparia); assay: Test A preemergence, visual plant response rating; settings: for Kochia plant response rating: 125 g ai/ha, preemergence, 0 to 100 scale, 0 no effect, 100 complete control; for Kochia plant response rating (0 to 100 scale): 500 g ai/ha Preemergence, approx. 10 days
Method in brief: as §2

[18] = system: barnyardgrass (Echinochloa crus-galli); assay: Test A preemergence, visual plant response rating; settings: for Barnyardgrass plant response rating: 125 g ai/ha, preemergence, 0 to 100 scale, 0 no effect, 100 complete control; for Barnyardgrass plant response rating (0 to 100 scale): 500 g ai/ha Preemergence, approx. 10 days
Method in brief: as §2

[19] = system: Italian ryegrass (Lolium multiflorum); assay: Test A preemergence, visual plant response rating; settings: for Ryegrass, Italian plant response rating: 125 g ai/ha, preemergence, 0 to 100 scale, 0 no effect, 100 complete control; for Ryegrass, Italian plant response rating (0 to 100 scale): 500 g ai/ha Preemergence, approx. 10 days
Method in brief: as §2

[20] = system: pigweed (Amaranthus retroflexus); assay: Test A preemergence, visual plant response rating; settings: for Pigweed plant response rating: 125 g ai/ha, preemergence, 0 to 100 scale, 0 no effect, 100 complete control; for Pigweed plant response rating (0 to 100 scale): 500 g ai/ha Preemergence, approx. 10 days
Method in brief: as §2

SMILES	Plant response rating, Sedge, Umbrella (0 to 100 scale, 0 is no effect, 100 is complete control) [1]	Plant response rating, Rice (0 to 100 scale, 0 is no effect, 100 is complete control) [2]	Plant response rating, Ducksalad (0 to 100 scale, 0 is no effect, 100 is complete control) [3]	Plant response rating, Barnyardgrass (0 to 100 scale, 0 is no effect, 100 is complete control) [4]	Foxtail, Giant plant response rating (0 to 100 scale) [5]	Foxtail, Giant plant response rating [5]	Ragweed plant response rating (0 to 100 scale) [6]	Ragweed plant response rating [6]	Kochia plant response rating (0 to 100 scale) [7]	Kochia plant response rating [7]	Wheat plant response rating (0 to 100 scale) [8]	Wheat plant response rating [8]	Corn plant response rating (0 to 100 scale) [9]	Corn plant response rating [9]	Blackgrass plant response rating (0 to 100 scale) [10]	Blackgrass plant response rating [10]	Galium plant response rating (0 to 100 scale) [11]	Galium plant response rating [11]	Barnyardgrass plant response rating (0 to 100 scale) [12]	Barnyardgrass plant response rating [12]	further results
CCO/N=C(\c1c(O)c(C)nn(C)c1=O)c1cccc2ccccc12 [Compound 79]	0	0	0	0	80	60	100	90	80	70	0	0	20	10	80	70	100	90	90	40	Ryegrass, Italian plant response rating (0 to 100 scale) [13]: 30; Ryegrass, Italian plant response rating [13]: 30; Pigweed plant response rating (0 to 100 scale) [14]: 90; Pigweed plant response rating [14]: 80; Foxtail, Giant plant response rating [15]: 60; Foxtail, Giant plant response rating (0 to 100 scale) [15]: 90; Ragweed plant response rating [16]: 90; Ragweed plant response rating (0 to 100 scale) [16]: 100; Kochia plant response rating [17]: 10; Kochia plant response rating (0 to 100 scale) [17]: 70; Barnyardgrass plant response rating [18]: 70; Barnyardgrass plant response rating (0 to 100 scale) [18]: 80; Ryegrass, Italian plant response rating [19]: 30; Ryegrass, Italian plant response rating (0 to 100 scale) [19]: 60; Pigweed plant response rating [20]: 30; Pigweed plant response rating (0 to 100 scale) [20]: 100
CCCO/N=C(\c1c(O)c(C)nn(C)c1=O)c1cccc2ccccc12 [Compound 80]	0	0	0	0	80	60	90	80	60	30	0	0	20	10	90	70	90	80	60	50	Ryegrass, Italian plant response rating (0 to 100 scale) [13]: 70; Ryegrass, Italian plant response rating [13]: 20; Pigweed plant response rating (0 to 100 scale) [14]: 80; Pigweed plant response rating [14]: 70; Foxtail, Giant plant response rating [15]: 60; Foxtail, Giant plant response rating (0 to 100 scale) [15]: 100; Ragweed plant response rating [16]: 50; Ragweed plant response rating (0 to 100 scale) [16]: 100; Kochia plant response rating [17]: 0; Kochia plant response rating (0 to 100 scale) [17]: 10; Barnyardgrass plant response rating [18]: 60; Barnyardgrass plant response rating (0 to 100 scale) [18]: 80; Ryegrass, Italian plant response rating [19]: 10; Ryegrass, Italian plant response rating (0 to 100 scale) [19]: 30; Pigweed plant response rating [20]: 20; Pigweed plant response rating (0 to 100 scale) [20]: 100
CCCO/N=C(/c1c(O)c(C)nn(C)c1=O)c1cccc2ccccc12 [Compound 81]	0	0	0	0	80	60	90	80	60	40	0	0	20	20	80	70	90	80	70	40	Ryegrass, Italian plant response rating (0 to 100 scale) [13]: 20; Ryegrass, Italian plant response rating [13]: 30; Pigweed plant response rating (0 to 100 scale) [14]: 90; Pigweed plant response rating [14]: 60; Foxtail, Giant plant response rating [15]: 60; Foxtail, Giant plant response rating (0 to 100 scale) [15]: 100; Ragweed plant response rating [16]: 90; Ragweed plant response rating (0 to 100 scale) [16]: 100; Kochia plant response rating [17]: 10; Kochia plant response rating (0 to 100 scale) [17]: 10; Barnyardgrass plant response rating [18]: 60; Barnyardgrass plant response rating (0 to 100 scale) [18]: 70; Ryegrass, Italian plant response rating [19]: 20; Ryegrass, Italian plant response rating (0 to 100 scale) [19]: 50; Pigweed plant response rating [20]: 20; Pigweed plant response rating (0 to 100 scale) [20]: 100
C#CCO/N=C(/c1c(O)c(C)nn(C)c1=O)c1cccc2ccccc12 [Compound 82, 5-hydroxy-2,6-dimethyl-4-[(E)-[(2-propyn-1-yloxy)imino]-1-naphthalenylmethyl]-3(2H)-pyridazinone]	0	0	0	0	80	70	100	90	90	80	80	50	30	0	100	90	100	90	80	50	Ryegrass, Italian plant response rating (0 to 100 scale) [13]: 80; Ryegrass, Italian plant response rating [13]: 80; Pigweed plant response rating (0 to 100 scale) [14]: 90; Pigweed plant response rating [14]: 70; Foxtail, Giant plant response rating [15]: 100; Foxtail, Giant plant response rating (0 to 100 scale) [15]: 100; Ragweed plant response rating [16]: 90; Ragweed plant response rating (0 to 100 scale) [16]: 100; Kochia plant response rating [17]: 10; Kochia plant response rating (0 to 100 scale) [17]: 80; Barnyardgrass plant response rating [18]: 60; Barnyardgrass plant response rating (0 to 100 scale) [18]: 100; Ryegrass, Italian plant response rating [19]: 90; Ryegrass, Italian plant response rating (0 to 100 scale) [19]: 100; Pigweed plant response rating [20]: 100; Pigweed plant response rating (0 to 100 scale) [20]: 100
